In experiment [1] the target is Tyrosine-protein kinase ABL1 (Homo sapiens, UniProt P00519).
Experiment [2] concerns the target T1, Activin receptor type-1 (Homo sapiens, UniProt Q04771).
T1 sequence (Q04771 whole entry): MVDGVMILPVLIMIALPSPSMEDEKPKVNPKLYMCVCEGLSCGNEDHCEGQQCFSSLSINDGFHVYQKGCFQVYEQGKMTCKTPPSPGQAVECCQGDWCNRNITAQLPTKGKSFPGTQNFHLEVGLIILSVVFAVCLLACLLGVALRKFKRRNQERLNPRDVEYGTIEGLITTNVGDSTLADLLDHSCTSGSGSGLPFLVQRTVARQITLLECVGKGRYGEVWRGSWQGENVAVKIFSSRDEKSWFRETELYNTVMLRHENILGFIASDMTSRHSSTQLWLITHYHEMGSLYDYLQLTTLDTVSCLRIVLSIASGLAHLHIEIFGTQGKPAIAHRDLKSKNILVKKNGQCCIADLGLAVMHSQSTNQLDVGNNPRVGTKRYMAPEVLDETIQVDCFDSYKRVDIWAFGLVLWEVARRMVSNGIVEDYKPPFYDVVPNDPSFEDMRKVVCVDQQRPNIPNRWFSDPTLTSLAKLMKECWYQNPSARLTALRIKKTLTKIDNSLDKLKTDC

Experiment [3] addresses Tyrosine-protein kinase CSK (Homo sapiens, UniProt P41240).
The target in experiment [4] is T2, ATP-dependent RNA helicase DDX42 (Homo sapiens, UniProt Q86XP3).
T2 sequence (Q86XP3 whole entry): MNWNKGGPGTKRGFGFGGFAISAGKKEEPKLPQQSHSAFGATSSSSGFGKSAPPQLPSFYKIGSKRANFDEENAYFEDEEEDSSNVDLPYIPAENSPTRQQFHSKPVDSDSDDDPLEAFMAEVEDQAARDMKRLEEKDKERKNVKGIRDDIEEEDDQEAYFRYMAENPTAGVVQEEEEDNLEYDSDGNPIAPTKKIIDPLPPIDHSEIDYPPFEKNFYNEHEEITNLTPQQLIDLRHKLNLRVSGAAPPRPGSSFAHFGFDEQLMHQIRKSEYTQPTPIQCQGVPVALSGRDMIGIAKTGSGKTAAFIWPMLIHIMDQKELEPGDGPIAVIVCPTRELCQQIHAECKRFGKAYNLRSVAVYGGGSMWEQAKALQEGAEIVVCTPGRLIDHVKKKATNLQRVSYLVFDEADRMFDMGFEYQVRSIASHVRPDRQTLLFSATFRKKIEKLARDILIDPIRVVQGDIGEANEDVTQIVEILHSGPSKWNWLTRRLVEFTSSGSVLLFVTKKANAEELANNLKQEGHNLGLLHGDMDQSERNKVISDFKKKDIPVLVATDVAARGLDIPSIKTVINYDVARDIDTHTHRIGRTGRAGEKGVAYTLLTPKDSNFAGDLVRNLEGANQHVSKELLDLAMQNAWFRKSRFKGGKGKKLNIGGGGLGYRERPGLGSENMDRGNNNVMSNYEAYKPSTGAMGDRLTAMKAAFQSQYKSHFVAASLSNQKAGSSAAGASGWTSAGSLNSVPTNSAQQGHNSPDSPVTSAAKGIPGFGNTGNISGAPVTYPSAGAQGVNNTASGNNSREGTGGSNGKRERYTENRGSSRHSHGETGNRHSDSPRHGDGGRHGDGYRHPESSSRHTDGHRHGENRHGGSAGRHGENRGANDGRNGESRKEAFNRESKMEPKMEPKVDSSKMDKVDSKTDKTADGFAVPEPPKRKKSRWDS

In experiment [5] the target is T3, Delta(24)-sterol reductase (Homo sapiens, UniProt Q15392).
T3 sequence (Q15392 whole entry): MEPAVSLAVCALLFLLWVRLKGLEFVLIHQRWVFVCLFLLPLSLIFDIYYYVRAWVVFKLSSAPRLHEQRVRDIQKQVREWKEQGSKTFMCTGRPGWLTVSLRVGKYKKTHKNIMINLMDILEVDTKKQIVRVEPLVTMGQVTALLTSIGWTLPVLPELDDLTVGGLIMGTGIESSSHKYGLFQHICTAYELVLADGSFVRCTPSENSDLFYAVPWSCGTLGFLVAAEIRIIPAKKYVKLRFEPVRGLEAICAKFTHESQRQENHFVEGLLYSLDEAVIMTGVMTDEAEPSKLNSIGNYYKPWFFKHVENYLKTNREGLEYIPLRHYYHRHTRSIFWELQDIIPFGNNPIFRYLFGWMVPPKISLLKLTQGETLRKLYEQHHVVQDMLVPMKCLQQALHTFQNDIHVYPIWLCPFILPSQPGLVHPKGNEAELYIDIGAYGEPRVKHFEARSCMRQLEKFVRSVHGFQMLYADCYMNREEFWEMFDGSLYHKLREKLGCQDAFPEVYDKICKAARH

For experiment [6], the target named is Tyrosine-protein kinase Fyn (Homo sapiens, UniProt P06241).
Experiment [7] has as its target Mitogen-activated protein kinase 7 (Homo sapiens, UniProt Q13164).
The target of experiment [8] is Macrophage-stimulating protein receptor (Homo sapiens, UniProt Q04912).
Experiment [9] addresses cAMP-dependent protein kinase catalytic subunit alpha (Homo sapiens, UniProt P17612).
Experiment [10] has as its target Receptor-interacting serine/threonine-protein kinase 2 (Homo sapiens, UniProt O43353).
Experiment [11] deals with Ribosomal protein S6 kinase alpha-4 (Homo sapiens, UniProt O75676).
Experiment [12] has as its target T4, ADP/ATP translocase 2 (Homo sapiens, UniProt P05141).
T4 sequence (P05141 whole entry): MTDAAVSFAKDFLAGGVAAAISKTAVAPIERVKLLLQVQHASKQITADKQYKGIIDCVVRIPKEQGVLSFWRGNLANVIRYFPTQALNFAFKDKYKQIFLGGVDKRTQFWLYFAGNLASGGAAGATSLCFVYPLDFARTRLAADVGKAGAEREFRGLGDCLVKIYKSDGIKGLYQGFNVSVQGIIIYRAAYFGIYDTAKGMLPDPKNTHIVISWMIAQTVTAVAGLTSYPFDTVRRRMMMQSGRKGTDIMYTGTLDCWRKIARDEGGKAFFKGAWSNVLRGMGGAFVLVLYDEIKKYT

The target of experiment [13] is Elongation factor Tu, mitochondrial (Homo sapiens, UniProt P49411).

One may read the Kd as the equilibrium constant for the complex coming apart.

Active and inactive are the calls of the source. For most assays here, no stated cut-off is given here; in the data, actives have a measured Kd and inactives only a lower limit.

Sequence of Ribosomal protein S6 kinase alpha-4 (O75676 whole entry): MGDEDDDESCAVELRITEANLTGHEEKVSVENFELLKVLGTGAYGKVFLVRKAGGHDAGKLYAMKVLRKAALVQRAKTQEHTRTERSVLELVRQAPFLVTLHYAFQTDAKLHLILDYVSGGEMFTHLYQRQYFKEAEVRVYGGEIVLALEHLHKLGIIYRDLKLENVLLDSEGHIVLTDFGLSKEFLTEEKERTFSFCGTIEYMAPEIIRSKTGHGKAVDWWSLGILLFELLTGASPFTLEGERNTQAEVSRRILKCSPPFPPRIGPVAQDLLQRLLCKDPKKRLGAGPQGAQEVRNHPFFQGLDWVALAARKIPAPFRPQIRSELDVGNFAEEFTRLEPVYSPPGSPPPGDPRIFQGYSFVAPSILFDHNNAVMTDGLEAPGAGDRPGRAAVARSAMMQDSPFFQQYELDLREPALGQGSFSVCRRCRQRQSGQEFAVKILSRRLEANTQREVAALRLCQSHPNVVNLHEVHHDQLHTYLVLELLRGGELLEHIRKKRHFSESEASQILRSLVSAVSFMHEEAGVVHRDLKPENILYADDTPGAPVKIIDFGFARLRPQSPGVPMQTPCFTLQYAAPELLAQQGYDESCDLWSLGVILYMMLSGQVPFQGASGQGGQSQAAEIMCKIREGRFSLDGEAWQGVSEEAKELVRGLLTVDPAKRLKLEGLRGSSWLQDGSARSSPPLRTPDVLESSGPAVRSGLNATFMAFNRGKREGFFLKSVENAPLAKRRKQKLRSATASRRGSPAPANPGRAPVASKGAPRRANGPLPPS
Sequence of Tyrosine-protein kinase Fyn (P06241 whole entry): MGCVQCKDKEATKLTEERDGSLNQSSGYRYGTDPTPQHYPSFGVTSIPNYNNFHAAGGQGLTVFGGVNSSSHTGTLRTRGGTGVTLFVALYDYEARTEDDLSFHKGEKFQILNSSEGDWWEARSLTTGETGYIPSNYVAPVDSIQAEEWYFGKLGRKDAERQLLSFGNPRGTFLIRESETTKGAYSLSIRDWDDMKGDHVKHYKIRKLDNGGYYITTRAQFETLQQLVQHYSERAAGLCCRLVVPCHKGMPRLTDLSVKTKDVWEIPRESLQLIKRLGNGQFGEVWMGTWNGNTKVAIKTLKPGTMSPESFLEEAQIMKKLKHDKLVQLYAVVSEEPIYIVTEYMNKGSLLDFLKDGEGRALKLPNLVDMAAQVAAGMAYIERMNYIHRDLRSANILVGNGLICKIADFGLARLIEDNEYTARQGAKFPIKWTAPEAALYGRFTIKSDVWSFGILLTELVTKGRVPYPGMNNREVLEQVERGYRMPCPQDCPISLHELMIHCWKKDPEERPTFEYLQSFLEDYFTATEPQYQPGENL
Sequence of Receptor-interacting serine/threonine-protein kinase 2 (O43353 whole entry): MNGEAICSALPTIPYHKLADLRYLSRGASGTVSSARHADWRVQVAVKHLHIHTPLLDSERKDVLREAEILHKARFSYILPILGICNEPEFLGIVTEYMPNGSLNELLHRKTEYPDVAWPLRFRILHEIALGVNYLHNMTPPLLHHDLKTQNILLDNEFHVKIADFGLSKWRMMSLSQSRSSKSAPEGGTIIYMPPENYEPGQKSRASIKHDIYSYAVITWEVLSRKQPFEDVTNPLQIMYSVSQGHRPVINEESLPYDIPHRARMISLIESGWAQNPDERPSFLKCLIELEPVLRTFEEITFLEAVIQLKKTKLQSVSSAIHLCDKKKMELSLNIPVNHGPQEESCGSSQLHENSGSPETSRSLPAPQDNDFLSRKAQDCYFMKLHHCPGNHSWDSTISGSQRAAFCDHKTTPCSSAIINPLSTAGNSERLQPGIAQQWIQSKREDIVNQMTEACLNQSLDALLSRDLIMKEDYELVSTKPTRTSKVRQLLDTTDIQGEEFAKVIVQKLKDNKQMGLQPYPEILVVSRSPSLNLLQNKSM
Sequence of Tyrosine-protein kinase CSK (P41240 whole entry): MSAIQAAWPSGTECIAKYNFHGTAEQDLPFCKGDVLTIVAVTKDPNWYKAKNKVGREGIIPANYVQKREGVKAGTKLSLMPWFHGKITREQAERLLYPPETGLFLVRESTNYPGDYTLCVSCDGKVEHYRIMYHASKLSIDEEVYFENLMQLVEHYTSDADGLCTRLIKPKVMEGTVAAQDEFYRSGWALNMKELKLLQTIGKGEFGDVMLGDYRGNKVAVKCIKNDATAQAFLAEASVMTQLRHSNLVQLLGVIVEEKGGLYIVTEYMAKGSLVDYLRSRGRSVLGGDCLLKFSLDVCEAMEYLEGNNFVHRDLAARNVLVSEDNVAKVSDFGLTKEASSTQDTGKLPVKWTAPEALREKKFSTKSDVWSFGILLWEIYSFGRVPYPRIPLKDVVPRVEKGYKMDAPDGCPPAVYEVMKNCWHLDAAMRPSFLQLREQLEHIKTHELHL
Sequence of Mitogen-activated protein kinase 7 (Q13164 whole entry): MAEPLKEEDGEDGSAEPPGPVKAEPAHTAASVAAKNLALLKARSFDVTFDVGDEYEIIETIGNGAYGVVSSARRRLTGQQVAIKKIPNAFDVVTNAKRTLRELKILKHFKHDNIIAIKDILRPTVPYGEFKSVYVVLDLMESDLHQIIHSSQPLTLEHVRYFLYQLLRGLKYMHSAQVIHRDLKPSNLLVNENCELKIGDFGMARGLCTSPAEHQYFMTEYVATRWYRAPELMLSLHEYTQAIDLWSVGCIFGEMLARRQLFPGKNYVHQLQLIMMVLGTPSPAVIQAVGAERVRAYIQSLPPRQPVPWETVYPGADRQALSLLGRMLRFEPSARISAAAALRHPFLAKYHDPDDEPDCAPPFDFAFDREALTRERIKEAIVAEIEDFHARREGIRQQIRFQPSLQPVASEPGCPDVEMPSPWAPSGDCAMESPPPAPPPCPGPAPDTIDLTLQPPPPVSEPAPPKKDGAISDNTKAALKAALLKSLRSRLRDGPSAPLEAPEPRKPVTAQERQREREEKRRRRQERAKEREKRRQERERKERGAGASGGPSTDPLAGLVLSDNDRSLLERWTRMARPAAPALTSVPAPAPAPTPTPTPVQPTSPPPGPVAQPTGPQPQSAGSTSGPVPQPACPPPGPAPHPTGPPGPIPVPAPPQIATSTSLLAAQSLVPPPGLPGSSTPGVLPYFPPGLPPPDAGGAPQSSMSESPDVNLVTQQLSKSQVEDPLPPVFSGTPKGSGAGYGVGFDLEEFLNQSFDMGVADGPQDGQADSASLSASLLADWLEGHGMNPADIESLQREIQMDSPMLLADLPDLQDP
Sequence of Tyrosine-protein kinase ABL1 (P00519 whole entry): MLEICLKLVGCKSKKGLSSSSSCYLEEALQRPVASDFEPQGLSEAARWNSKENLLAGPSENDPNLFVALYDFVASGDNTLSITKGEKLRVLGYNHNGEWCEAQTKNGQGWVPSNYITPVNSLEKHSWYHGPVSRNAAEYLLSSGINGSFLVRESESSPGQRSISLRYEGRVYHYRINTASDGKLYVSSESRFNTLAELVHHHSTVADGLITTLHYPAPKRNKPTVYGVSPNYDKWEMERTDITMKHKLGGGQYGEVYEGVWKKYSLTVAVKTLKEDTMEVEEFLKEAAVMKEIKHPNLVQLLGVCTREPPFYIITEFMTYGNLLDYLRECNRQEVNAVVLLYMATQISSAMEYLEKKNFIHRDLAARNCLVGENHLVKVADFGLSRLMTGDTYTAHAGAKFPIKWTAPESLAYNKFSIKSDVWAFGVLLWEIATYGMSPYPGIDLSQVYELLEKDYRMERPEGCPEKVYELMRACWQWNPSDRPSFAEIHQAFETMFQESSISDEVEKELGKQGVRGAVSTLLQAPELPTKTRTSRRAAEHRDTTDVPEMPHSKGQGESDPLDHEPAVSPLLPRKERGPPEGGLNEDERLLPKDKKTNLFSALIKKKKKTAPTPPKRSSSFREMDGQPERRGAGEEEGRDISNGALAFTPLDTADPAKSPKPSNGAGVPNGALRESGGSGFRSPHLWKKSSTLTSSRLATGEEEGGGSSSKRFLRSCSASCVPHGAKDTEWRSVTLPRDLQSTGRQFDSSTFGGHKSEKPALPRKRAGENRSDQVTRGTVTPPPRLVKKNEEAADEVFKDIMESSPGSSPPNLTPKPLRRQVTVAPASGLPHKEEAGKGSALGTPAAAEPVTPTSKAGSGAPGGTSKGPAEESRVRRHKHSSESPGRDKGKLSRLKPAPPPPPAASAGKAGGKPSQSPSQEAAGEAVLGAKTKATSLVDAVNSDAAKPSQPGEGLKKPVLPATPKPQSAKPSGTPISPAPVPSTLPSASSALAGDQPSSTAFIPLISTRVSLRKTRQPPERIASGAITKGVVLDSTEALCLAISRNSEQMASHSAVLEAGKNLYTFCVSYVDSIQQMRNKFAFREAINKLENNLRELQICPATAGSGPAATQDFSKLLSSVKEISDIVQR

Regarding `C=CC(=O)Nc1cc(Nc2nccc(-c3cn(C)c4ccccc34)n2)c(OC)cc1N(C)CCN(C)C` [OSIMERTINIB], the Kd in experiment [1], in [2], in experiment [3], in experiment [4], in [5] and in [6] was > 30 µM (inactive) throughout. In addition, the Kd in experiment [7], in experiment [8], in [9], in experiment [10], in [11] and in experiment [12] was > 30 µM (inactive) throughout. Moreover, the Kd in experiment [13] is > 30 µM (inactive).
`COCCN1CCN(Cc2ccc(-c3n[nH]c4c3C(=O)c3c(NC(=O)NN5CCOCC5)cccc3-4)cc2)CC1` [RGB-286638]: the Kd in experiment [1], in experiment [2], in experiment [3], in [4], in [5] and in [6] was > 30 µM (inactive) in each case. The Kd in experiment [7], in experiment [8], in [9], in [10], in experiment [11] and in experiment [12] was > 30 µM (inactive) each time. In addition, the Kd in experiment [13] was > 30 µM (inactive).
In the case of `COc1cccc(Nc2ncnn3ccc(CN4CC[C@@H](N)[C@H](O)C4)c23)c1` [BMS-690514], the Kd in experiment [1] was 0.128 µM (active); in experiment [2] it was > 30 µM (inactive); in experiment [3] it was 1.72 µM (active); in [4], > 30 µM (inactive); in experiment [5] it was > 30 µM (inactive); in experiment [6], 0.583 µM (active). Besides, the Kd in [7] was > 30 µM (inactive); in experiment [8] it was > 30 µM (inactive); in [9], 0.916 µM (active); in experiment [10], > 30 µM (inactive); in experiment [11], > 30 µM (inactive); in experiment [12], > 30 µM (inactive). Further, the Kd in experiment [13] is > 30 µM (inactive).
In the case of `Cn1c(=O)c(F)c(Nc2ccc(I)cc2F)c2c(=O)n(C[C@@H](O)CO)cnc21` [TAK-733], the Kd in experiment [1], in experiment [2], in experiment [3], in experiment [4], in [5] and in [6] was > 30 µM (inactive) in each case. Besides, the Kd in [7], in experiment [8], in experiment [9], in experiment [10], in experiment [11] and in experiment [12] was > 30 µM (inactive) in each case. Further, the Kd in [13] was > 30 µM (inactive).
As to `C#Cc1cccc(Nc2ncnc3cc4c(cc23)OCCOCCOCCO4)c1` [ICOTINIB], the Kd in [1], in [2], in [3], in experiment [4], in [5] and in experiment [6] was > 30 µM (inactive) in each case. The Kd in experiment [7] was > 30 µM (inactive); in [8] it was > 30 µM (inactive); in [9], > 30 µM (inactive); in experiment [10], 2.63 µM (active); in experiment [11] it was > 30 µM (inactive); in experiment [12], > 30 µM (inactive). Also, the Kd in [13] is > 30 µM (inactive).
On to `FC(F)(F)c1ccc(CNc2ccc(Cc3c[nH]c4ncc(Cl)cc34)cn2)cn1` [PEXIDARTINIB], for which the Kd in experiment [1], in experiment [2], in experiment [3], in experiment [4], in [5] and in [6] was > 30 µM (inactive) in each case. Moreover, the Kd in [7], in [8], in experiment [9], in experiment [10], in [11] and in experiment [12] was > 30 µM (inactive) each time. For the same compound, in [13], the Kd was > 30 µM (inactive).
Regarding `CCOc1ccn(-c2ccc(F)cc2)c(=O)c1C(=O)Nc1ccc(Oc2ccnc(N)c2Cl)c(F)c1` [BMS-777607], the Kd in experiment [1] is 0.523 µM (active); in experiment [2] it was > 30 µM (inactive); in [3], > 30 µM (inactive); in [4], > 30 µM (inactive); in experiment [5], > 30 µM (inactive); in experiment [6], > 30 µM (inactive). In addition, the Kd in [7], in experiment [8], in experiment [9], in experiment [10], in [11] and in [12] was > 30 µM (inactive) throughout. Moreover, the Kd in experiment [13] is > 30 µM (inactive).
For `C=CC(=O)Nc1cccc(Nc2nc(Nc3ccc(N4CCN(C(C)=O)CC4)cc3OC)ncc2C(F)(F)F)c1` [ROCILETINIB], the Kd in [1], in experiment [2], in [3], in [4], in [5] and in [6] was > 30 µM (inactive) in each case. In addition, the Kd in experiment [7], in [8], in experiment [9], in experiment [10], in experiment [11] and in experiment [12] was > 30 µM (inactive) in each case. Moreover, the Kd in experiment [13] was > 30 µM (inactive).

(Values after ChEMBL document CHEMBL3991601, “The target landscape of clinical kinase drugs” (Science, 2017).)
